Reference: patent US9724352B2, “Pyrrolo[2,1-F[1,2,4]triazine compounds, preparation methods and applications thereof” (Shanghai Institute of Materia Medica, Chinese Academy of …, priority 2012, dated 2017)

Experiments:
Assay in all cases: Proliferation of human esophagus cancer cells
Type in all cases: cell-based
COLO680N = details: COLO-680N
Description: (§1) Compounds BYL719 (shown below), CYH33 (compound I-33) and I-27 were selected to test their activity on the proliferation of 11 species of human esophagus cancer cells.
(§2) The results reported in FIG. 3 were the average GI50 value and SD value of three experiments. The results were arranged according to the GI50 value of CYH33.

KYSE140 = tested on: KYSE140
Description: as §1, §2

KYSE180 = tested on: KYSE180
Description: as §1, §2

KYSE30 = tested on: KYSE30
Description: as §1, §2

KYSE410 = tested on: KYSE410
Description: as §1, §2

KYSE510 = tested on: KYSE510
Description: as §1, §2

KYSE70 = tested on: KYSE70
Description: as §1, §2

GI50 (COLO680N; 1st experiment): 743 nM
GI50 (COLO680N; 2nd experiment): 530 nM
GI50 (COLO680N; 3rd experiment): 701 nM
GI50 (COLO680N; mean of three experiments): 658 nM
GI50 (KYSE140; KYSE-140, KYSE140, 1st experiment): 484 nM
GI50 (KYSE140; KYSE-140, KYSE140, 2nd experiment): 804 nM
GI50 (KYSE140; KYSE-140, KYSE140, 3rd experiment): 492 nM
GI50 (KYSE140; KYSE-140, KYSE140, mean of three experiments): 593 nM
GI50 (KYSE180; KYSE-180, KYSE180, 1st experiment): 1 nM
GI50 (KYSE180; KYSE-180, KYSE180, 2nd experiment): 11 nM
GI50 (KYSE180; KYSE-180, KYSE180, 3rd experiment): 16 nM
GI50 (KYSE180; KYSE-180, KYSE180, mean of three experiments): 9 nM
GI50 (KYSE30; KYSE-30, KYSE30, 1st experiment): 2640 nM
GI50 (KYSE30; KYSE-30, KYSE30, 2nd experiment): 566 nM
GI50 (KYSE30; KYSE-30, KYSE30, 3rd experiment): 531 nM
GI50 (KYSE30; KYSE-30, KYSE30, mean of three experiments): 1250 nM
GI50 (KYSE410; KYSE-410, KYSE410, 1st experiment): 146 nM
GI50 (KYSE410; KYSE-410, KYSE410, 2nd experiment): 50 nM
GI50 (KYSE410; KYSE-410, KYSE410, 3rd experiment): 88 nM
GI50 (KYSE410; KYSE-410, KYSE410, mean of three experiments): 95 nM
GI50 (KYSE510; KYSE-510, KYSE510, 1st experiment): 55 nM
GI50 (KYSE510; KYSE-510, KYSE510, 2nd experiment): 6 nM
GI50 (KYSE510; KYSE-510, KYSE510, 3rd experiment): 38 nM
GI50 (KYSE510; KYSE-510, KYSE510, mean of three experiments): 33 nM
GI50 (KYSE70; KYSE-70, KYSE70, 1st experiment): 33 nM
GI50 (KYSE70; KYSE-70, KYSE70, 2nd experiment): 27 nM
GI50 (KYSE70; KYSE-70, KYSE70, 3rd experiment): 29 nM
GI50 (KYSE70; KYSE-70, KYSE70, mean of three experiments): 30 nM
Structure (SMILES): COC(=O)Nc1cc(C(F)(F)F)c(-c2nc(N3CCOCC3)c3cc(CN4CCN(S(C)(=O)=O)CC4)cn3n2)cn1 [Compound I-33, Methyl (5-(6-((4-(methylsulfonyl)piperazin-1-yl)methyl)-4-morpholinopyrrolo[2,1-f][1,2,4]triazin-2-yl)-4-(trifluoromethyl)pyridin-2-yl)carbamate]
